# ChEMBL document CHEMBL2417463, “Synthesis and identification of new flavonoids targeting liver X receptor β involved pathway as potential facilitators of Aβ clearance with reduced lipid accumulation” (J Med Chem, 2013)
# Active and inactive are the calls of the source. The calls are words filed in the database; no cut-off is given here.
# Columns and labels:
# Type in all cases: cell-based
# [1] = target: T1, Oxysterols receptor LXR-beta (Mus musculus) (UniProt Q60644); assay: Agonist activity at LXRbeta in mouse RAW264.7 cells assessed as induction of ABCA1 promoter activation at 1 uM after 24 hrs by Dual-Glo luciferase reporter gene assay relative to vehicle-treated control
# T1 sequence (whole entry): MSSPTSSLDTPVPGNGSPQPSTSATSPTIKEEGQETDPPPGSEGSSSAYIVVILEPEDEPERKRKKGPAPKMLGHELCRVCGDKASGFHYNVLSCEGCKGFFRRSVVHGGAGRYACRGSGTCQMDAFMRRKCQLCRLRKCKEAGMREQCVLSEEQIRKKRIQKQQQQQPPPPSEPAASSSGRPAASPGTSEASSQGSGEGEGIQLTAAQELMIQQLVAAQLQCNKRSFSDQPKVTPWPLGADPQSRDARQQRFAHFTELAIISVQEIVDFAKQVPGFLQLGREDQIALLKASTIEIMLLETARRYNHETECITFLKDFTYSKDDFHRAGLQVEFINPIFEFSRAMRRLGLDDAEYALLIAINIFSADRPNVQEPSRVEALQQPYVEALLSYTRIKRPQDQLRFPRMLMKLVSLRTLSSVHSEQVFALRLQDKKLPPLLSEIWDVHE
# [2] = target: T1, Oxysterols receptor LXR-beta (Mus musculus); assay: Agonist activity at LXRbeta in mouse BV2 cells assessed as degradation of intracellular soluble amyloid beta42 at 1 uM preincubated for 18 hrs followed by soluble amyloid beta42 addition measured after 24 hrs by ELISA relative to vehicle-treated control; details: BV-2
# [3] = target: T1, Oxysterols receptor LXR-beta (Mus musculus); assay: Agonist activity at LXRbeta in mouse BV2 cells assessed as upregulation of apoE protein expression at 0.1 uM after 48 hrs by Western blot analysis relative to vehicle-treated control; details: BV-2
# [4] = target: T1, Oxysterols receptor LXR-beta (Mus musculus); assay: Agonist activity at LXRbeta in mouse BV2 cells assessed as upregulation of apoE protein expression at 10 uM after 48 hrs by Western blot analysis relative to vehicle-treated control; details: BV-2
# [5] = target: T1, Oxysterols receptor LXR-beta (Mus musculus); assay: Agonist activity at LXRbeta in mouse RAW264.7 cells assessed as induction of ABCA1 promoter activation after 24 hrs by Dual-Glo luciferase reporter gene assay
# [6] = target: T1, Oxysterols receptor LXR-beta (Mus musculus); assay: Agonist activity at LXRbeta in mouse RAW264.7 cells assessed as upregulation of ABCA1 protein expression at 1 uM after 18 to 48 hrs by Western blot analysis
# RAW264.7 = assay: Cytotoxicity against mouse RAW264.7 cells assessed as inhibition of cell viability at 50 uM after 48 hrs by SRB assay relative to vehicle-treated control; details: raw264.7, 48 h
# [7] = target: T1, Oxysterols receptor LXR-beta (Mus musculus); assay: Agonist activity at LXRbeta in mouse BV2 cells assessed as degradation of intracellular amyloid beta42 preincubated for 18 hrs followed by soluble amyloid beta42 addition measured after 24 hrs by ELISA; details: BV-2
# HEK293 = assay: Cytotoxicity against HEK293 cells assessed as inhibition of cell viability at 50 uM after 48 hrs by SRB assay relative to vehicle-treated control; details: human, hek293, 48 h
# HepG2 [8] = assay: Cytotoxicity against human HepG2 cells assessed as inhibition of cell viability at 50 uM after 48 hrs by SRB assay relative to vehicle-treated control; details: hepg2, 48 h, 50 µM
# HepG2 [9] = assay: Induction of cytoplasmic lipid accumulation in human HepG2 cells at 10 uM after 4 days by oil red O staining-based light microscopic analysis; details: hepg2, 96 h
# BV-2 = assay: Cytotoxicity against mouse BV2 cells assessed as inhibition of cell viability at 50 uM after 48 hrs by SRB assay relative to vehicle-treated control; details: bv-2, 48 h
# HepG2 [10] = assay: Induction of intracellular triglyceride accumulation in human HepG2 cells at 1 uM after 4 days relative to vehicle-treated control; details: hepg2, 96 h
# [11] = target: T1, Oxysterols receptor LXR-beta (Mus musculus); assay: Agonist activity at LXRbeta in mouse BV2 cells assessed as upregulation of apoE protein expression at 1 uM after 48 hrs by Western blot analysis relative to vehicle-treated control; details: BV-2
# [12] = target: T1, Oxysterols receptor LXR-beta (Mus musculus); assay: Agonist activity at LXRbeta in mouse BV2 cells assessed as degradation of intracellular soluble amyloid beta42 at 0.1 uM preincubated for 18 hrs followed by soluble amyloid beta42 addition measured after 24 hrs by ELISA relative to vehicle-treated control; details: BV-2
# [13] = target: T1, Oxysterols receptor LXR-beta (Mus musculus); assay: Agonist activity at LXRbeta in mouse BV2 cells assessed as upregulation of ABCA1 protein expression after 12 to 48 hrs by Western blot analysis; details: BV-2
# [14] = target: T1, Oxysterols receptor LXR-beta (Mus musculus); assay: Agonist activity at LXRbeta in mouse RAW264.7 cells assessed as upregulation of ABCA1 protein expression after 18 to 48 hrs by Western blot analysis
# [15] = target: T1, Oxysterols receptor LXR-beta (Mus musculus); assay: Agonist activity at LXRbeta in mouse BV2 cells assessed as upregulation of ABCA1 protein expression at 1 uM after 12 to 48 hrs by Western blot analysis; details: BV-2
# [16] = target: T2, Oxysterols receptor LXR-beta (Homo sapiens) (UniProt P55055); assay: Agonist activity at human LXRbeta transfected in HEK293 cells at 0.1 uM after 24 hrs by luciferase reporter gene assay relative to vehicle-treated control
# T2 sequence (whole entry): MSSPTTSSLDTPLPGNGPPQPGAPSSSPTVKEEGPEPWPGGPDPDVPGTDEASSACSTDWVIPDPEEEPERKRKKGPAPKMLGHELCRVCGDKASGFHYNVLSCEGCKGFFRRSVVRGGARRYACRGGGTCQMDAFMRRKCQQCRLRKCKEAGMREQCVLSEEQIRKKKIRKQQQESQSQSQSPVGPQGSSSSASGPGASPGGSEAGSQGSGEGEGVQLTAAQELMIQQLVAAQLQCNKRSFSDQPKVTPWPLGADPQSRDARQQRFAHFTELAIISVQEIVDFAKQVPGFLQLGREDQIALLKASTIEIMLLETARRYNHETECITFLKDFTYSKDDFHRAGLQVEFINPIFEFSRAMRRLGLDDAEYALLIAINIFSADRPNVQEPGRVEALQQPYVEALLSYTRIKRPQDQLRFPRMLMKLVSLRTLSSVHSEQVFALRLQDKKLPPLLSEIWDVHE
# [17] = target: T2, Oxysterols receptor LXR-beta (Homo sapiens); assay: Agonist activity at human LXRbeta transfected in HEK293 cells at 1 uM after 24 hrs by luciferase reporter gene assay relative to vehicle-treated control
# HepG2 [18] = assay: Induction of intracellular triglyceride accumulation in human HepG2 cells at 10 uM after 4 days relative to vehicle-treated control; details: hepg2, 96 h
# [19] = target: T3, Oxysterols receptor LXR-alpha (Homo sapiens) (UniProt Q13133); assay: Agonist activity at human LXRalpha transfected in HEK293 cells at 0.1 uM after 24 hrs by luciferase reporter gene assay relative to vehicle-treated control
# T3 sequence (whole entry): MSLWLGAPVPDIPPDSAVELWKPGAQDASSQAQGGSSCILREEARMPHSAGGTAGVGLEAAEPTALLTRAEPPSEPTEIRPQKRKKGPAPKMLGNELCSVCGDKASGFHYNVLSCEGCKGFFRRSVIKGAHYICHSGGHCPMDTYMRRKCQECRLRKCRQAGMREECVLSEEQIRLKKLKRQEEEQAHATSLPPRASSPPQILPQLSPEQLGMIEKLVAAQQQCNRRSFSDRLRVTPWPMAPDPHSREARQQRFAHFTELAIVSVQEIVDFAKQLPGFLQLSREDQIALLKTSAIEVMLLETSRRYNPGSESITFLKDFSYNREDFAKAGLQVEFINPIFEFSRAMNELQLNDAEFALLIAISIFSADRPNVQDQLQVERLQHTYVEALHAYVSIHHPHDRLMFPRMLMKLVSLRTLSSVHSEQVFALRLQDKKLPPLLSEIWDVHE
# [20] = target: T3, Oxysterols receptor LXR-alpha (Homo sapiens); assay: Agonist activity at human LXRalpha transfected in HEK293 cells at 1 uM after 24 hrs by luciferase reporter gene assay relative to vehicle-treated control
smiles,measurement,setting,value
Nc1ccc(C(=O)/C=C/c2ccc(F)cc2)c(O)c1,fold change (FC),[1],1.36
O=c1cc(-c2ccc3ccccc3n2)oc2cc(O)ccc12,fold change (FC),[1],1.36
CC1=C(/C=C/C(C)=C\C=C\C(C)=C\C(=O)O)C(C)(C)CCC1,fold change (FC),[1],2.18
CC(=O)Nc1ccc(C(=O)/C=C/c2ccc(C)s2)c(O)c1,fold change (FC),[1],1.08
O=c1cc(-c2ccc(-c3ccccc3)cc2)oc2cc(O)ccc12,fold change (FC),[1],1.15
Cc1ccc(/C=C/C(=O)c2ccc(N(C)C)cc2O)o1,fold change (FC),[1],1.02
CC(C)c1ccc(/C=C/C(=O)c2ccc(N)cc2O)cc1,fold change (FC),[1],2.05
Nc1ccc(C(=O)/C=C/c2ccc(-c3ccccc3)cc2)c(O)c1,fold change (FC),[1],1.55
COc1cc(N(C)C)ccc1C(=O)/C=C/c1ccc(C)o1,fold change (FC),[1],1.57
Cc1ccc(CCC(=O)c2ccc(N)cc2O)o1,fold change (FC),[1],1.9
CSc1ccc(/C=C/C(=O)c2ccc(N)cc2O)cc1,fold change (FC),[1],1.26
O=C(O)c1ccc(-c2cc(=O)c3ccc(O)cc3o2)cc1,fold change (FC),[1],1.66
same,Activity,[2],18%
O=c1cc(-c2csc3ccccc23)oc2cc(O)ccc12,fold change (FC),[1],1.44
Nc1ccc(C(=O)/C=C/c2ccc3ccccc3c2)c(O)c1,fold change (FC),[3],1.4
same,fold change (FC),[4],1.7
same,Activity,[5],Dose-dependent effect
same,Activity,[6],Active
same,Activity,RAW264.7,Non-toxic
same,Activity,[7],Dose-dependent effect
same,Activity,HEK293,Non-toxic
same,Activity,HepG2 [8],Non-toxic
same,Activity,HepG2 [9],Toxic
same,Activity,BV-2,Non-toxic
same,Activity,HepG2 [10],-21%
same,fold change (FC),[11],1.4
same,Activity,[12],44%
same,Activity,[13],Dose-dependent effect
same,Activity,[14],Dose-dependent effect
same,Activity,[15],Active
same,fold change (FC),[16],1.38
same,fold change (FC),[17],2.22
same,fold change (FC),[1],2.64
same,Activity,HepG2 [18],19%
same,fold change (FC),[19],1.06
same,Activity,[2],37%
same,fold change (FC),[20],1.11
O=c1cc(-c2cccc(Oc3ccccc3)c2)oc2cc(O)ccc12,fold change (FC),[1],1.17
CC(C)c1ccc(-c2cc(=O)c3ccc(O)cc3o2)cc1,fold change (FC),[1],1.22
COc1cc(N)ccc1C(=O)/C=C/c1ccc(C)s1,fold change (FC),[1],1.5
Cc1ccc(-c2cc(=O)c3ccc(N)cc3o2)o1,fold change (FC),[1],1.3
O=c1cc(-c2ccc3ccccc3c2)oc2cc(O)ccc12,fold change (FC),[1],1.57
same,Activity,[2],7%
Nc1ccc(C(=O)/C=C/c2ccc3c(c2)OCO3)c(O)c1,fold change (FC),[1],1.92
same,Activity,[2],40%
CCOc1ccc(-c2cc(=O)c3ccc(N)cc3o2)cc1,fold change (FC),[1],1.37
Nc1ccc(C(=O)/C=C/c2c[nH]c3ccccc23)c(O)c1,fold change (FC),[1],1.76
same,Activity,[2],39%
Nc1ccc(C(=O)CCc2ccc3ccccc3c2)c(O)c1,fold change (FC),[1],1.34
Nc1ccc(C(=O)/C=C/c2cccc(Oc3ccccc3)c2)c(O)c1,fold change (FC),[1],1.76
Nc1ccc(C(=O)/C=C/c2ccc(Cl)cc2)c(O)c1,fold change (FC),[1],1.16
CC(C)OC(=O)C(C)(C)Oc1ccc(C(=O)c2ccc(Cl)cc2)cc1,fold change (FC),[1],1.1
COc1cc(N)ccc1C(=O)/C=C/c1ccc(C)o1,fold change (FC),[1],1.2
Nc1ccc(C(=O)/C=C/c2cc(C(F)(F)F)cc(C(F)(F)F)c2)c(O)c1,fold change (FC),[1],1.12
COc1cc(N(C)C)ccc1C(=O)/C=C/c1ccc2ccccc2c1,fold change (FC),[1],1.35
Nc1ccc(C(=O)/C=C/c2csc3ccccc23)c(O)c1,fold change (FC),[1],2.31
same,Activity,[2],42%
CN(CCOc1ccc(CC2SC(=O)NC2=O)cc1)c1ccccn1 (stereo not drawn),fold change (FC),[1],1.19
COc1cc(/C=C/C(=O)c2ccc(N)cc2O)cc(OC)c1OC,fold change (FC),[1],0.98
COc1ccc(-c2ccc(-c3cc(=O)c4ccc(O)cc4o3)s2)cc1,fold change (FC),[1],1.03
CCOc1ccc(/C=C/C(=O)c2ccc(N)cc2O)cc1,fold change (FC),[1],1.92
same,Activity,[2],16%
Cc1ccc(-c2cc(=O)c3ccc(N)cc3o2)s1,fold change (FC),[1],1.47
CCOc1ccc(/C=C/C(=O)c2ccc(N)cc2O)cc1OC,fold change (FC),[1],1.86
same,Activity,[2],23%
CCOc1ccc(/C=C/C(=O)c2ccc(N)cc2OC)cc1,fold change (FC),[1],1.06
Cc1ccc(/C=C/C(=O)c2ccc(N)cc2O)s1,fold change (FC),[1],2
same,Activity,[2],37%
COc1ccc(-c2ccc(/C=C/C(=O)c3ccc(N)cc3O)s2)cc1,fold change (FC),[1],1.09
CCc1ccc(/C=C/C(=O)c2ccc(N)cc2O)cc1,fold change (FC),[1],1.73
COc1cccc(/C=C/C(=O)c2ccc(N)cc2O)c1,fold change (FC),[1],2.09
same,Activity,[2],33%
COc1cc(N)ccc1C(=O)/C=C/c1ccc2ccccc2c1,fold change (FC),[1],0.88
